PMC3914206

How the values were obtained:
Format in all cases: binding
Design in all cases: KINOMEscan: ABL1(F317L)-phosphorylated / KINOMEscan: ABL1(H396P)-nonphosphorylated / KINOMEscan: ABL1(H396P)-phosphorylated / KINOMEscan: ABL1(M351T)-phosphorylated / KINOMEscan: ABL1(T315I)-phosphorylated / KINOMEscan: ABL1-nonphosphorylated / KINOMEscan: ABL1-phosphorylated / KINOMEscan: ACVR2A / KINOMEscan: ACVR2B / KINOMEscan: ADCK3 / KINOMEscan: ADCK4 / KINOMEscan: AKT1 / KINOMEscan: AKT3 / KINOMEscan: ALK / KINOMEscan: ARK5 / KINOMEscan: AURKA / KINOMEscan: AURKC / KINOMEscan: BIKE / KINOMEscan: BMPR1A / KINOMEscan: BMPR1B / KINOMEscan: BMX / KINOMEscan: BRK / KINOMEscan: BRSK1 / KINOMEscan: BRSK2 / KINOMEscan: CAMK1 / KINOMEscan: CAMK1D / KINOMEscan: CAMK1G / KINOMEscan: CAMK2A / KINOMEscan: CAMK2B / KINOMEscan: AAK1 / KINOMEscan: CAMK2D / KINOMEscan: CAMK2G / KINOMEscan: ABL1(F317I)-nonphosphorylated / KINOMEscan: ABL1(F317I)-phosphorylated / KINOMEscan: ABL1(F317L)-nonphosphorylated: unit: % Ctrl
Details in all cases: Compound Concentration 10 µM
panel of 442 kinases [1] = molecular target: T1, panel of 442 kinases (Homo sapiens, UniProt O94804)
T1 construct: purchased KINOMEscan
T1 sequence (O94804 whole entry): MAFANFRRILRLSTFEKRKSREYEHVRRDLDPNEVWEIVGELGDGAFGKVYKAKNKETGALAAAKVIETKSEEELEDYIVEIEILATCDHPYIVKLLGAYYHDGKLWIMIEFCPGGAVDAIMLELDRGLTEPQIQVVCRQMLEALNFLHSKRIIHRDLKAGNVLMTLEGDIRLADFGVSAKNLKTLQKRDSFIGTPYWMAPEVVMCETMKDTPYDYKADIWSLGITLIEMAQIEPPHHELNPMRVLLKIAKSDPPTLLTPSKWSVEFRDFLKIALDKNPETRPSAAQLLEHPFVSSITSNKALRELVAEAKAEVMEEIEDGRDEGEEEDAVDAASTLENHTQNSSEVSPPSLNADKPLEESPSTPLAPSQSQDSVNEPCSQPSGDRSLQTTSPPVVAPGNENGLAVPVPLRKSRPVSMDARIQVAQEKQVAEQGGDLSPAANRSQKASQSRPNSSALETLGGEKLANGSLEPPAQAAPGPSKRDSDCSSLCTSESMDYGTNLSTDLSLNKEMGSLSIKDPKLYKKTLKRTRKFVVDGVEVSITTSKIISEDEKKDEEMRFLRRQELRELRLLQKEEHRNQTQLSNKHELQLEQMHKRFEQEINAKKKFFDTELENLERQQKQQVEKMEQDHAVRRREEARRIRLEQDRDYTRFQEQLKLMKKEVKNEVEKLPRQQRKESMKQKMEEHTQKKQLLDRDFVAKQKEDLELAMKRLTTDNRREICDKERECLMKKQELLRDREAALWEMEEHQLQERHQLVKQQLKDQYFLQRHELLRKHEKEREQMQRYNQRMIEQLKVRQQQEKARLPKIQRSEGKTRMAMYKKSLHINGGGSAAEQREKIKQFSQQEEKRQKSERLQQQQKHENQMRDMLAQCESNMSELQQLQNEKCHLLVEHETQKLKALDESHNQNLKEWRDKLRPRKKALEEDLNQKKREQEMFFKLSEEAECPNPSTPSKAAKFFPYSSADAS
Description: (§1) We assessed the selectivity of members of this scaffold using the KINOMEscan methodology across a near comprehensive panel of 442 kinases [[18,27]].

panel of 442 kinases [2] = molecular target: T2, panel of 442 kinases (Homo sapiens, UniProt Q8NI60)
T2 construct: purchased KINOMEscan
T2 sequence (Q8NI60 163-647): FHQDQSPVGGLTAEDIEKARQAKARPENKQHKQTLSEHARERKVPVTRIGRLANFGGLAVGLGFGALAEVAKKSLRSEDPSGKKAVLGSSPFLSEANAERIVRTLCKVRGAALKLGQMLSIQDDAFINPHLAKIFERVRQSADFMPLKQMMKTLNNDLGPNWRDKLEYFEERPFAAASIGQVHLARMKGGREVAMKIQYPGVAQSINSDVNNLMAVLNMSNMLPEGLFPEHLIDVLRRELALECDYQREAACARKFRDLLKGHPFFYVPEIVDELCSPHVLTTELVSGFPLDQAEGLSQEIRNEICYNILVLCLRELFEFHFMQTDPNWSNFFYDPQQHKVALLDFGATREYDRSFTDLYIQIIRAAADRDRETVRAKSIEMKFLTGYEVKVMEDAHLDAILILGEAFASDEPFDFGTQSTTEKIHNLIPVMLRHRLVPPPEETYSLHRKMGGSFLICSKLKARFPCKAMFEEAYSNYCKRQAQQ
Description: as §1

panel of 442 kinases [3] = molecular target: T3, panel of 442 kinases (Homo sapiens, UniProt Q13163)
T3 construct: purchased KINOMEscan
T3 sequence (Q13163 1-448): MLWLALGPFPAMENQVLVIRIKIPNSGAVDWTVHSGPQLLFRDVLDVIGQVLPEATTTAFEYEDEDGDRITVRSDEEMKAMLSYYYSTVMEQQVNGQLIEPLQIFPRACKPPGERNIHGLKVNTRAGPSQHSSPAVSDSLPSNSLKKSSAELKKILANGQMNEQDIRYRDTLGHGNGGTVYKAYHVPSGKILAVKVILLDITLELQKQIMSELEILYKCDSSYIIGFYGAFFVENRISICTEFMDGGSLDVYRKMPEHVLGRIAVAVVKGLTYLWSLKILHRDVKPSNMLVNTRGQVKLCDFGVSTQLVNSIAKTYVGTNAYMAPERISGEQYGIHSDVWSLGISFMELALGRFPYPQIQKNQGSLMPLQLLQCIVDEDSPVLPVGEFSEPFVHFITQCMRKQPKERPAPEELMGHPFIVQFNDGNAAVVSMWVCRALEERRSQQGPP
Description: as §1

Compound	KINOMEscan: LOK (panel of 442 kinases [1])	KINOMEscan: ADCK3 (panel of 442 kinases [2])	KINOMEscan: MEK5 (panel of 442 kinases [3])
CCOc1cc(C(=O)N2CCC(N3CCN(C)CC3)CC2)ccc1Nc1ncc2c(n1)N(C1CCCC1)c1ccccc1C(=O)N2C [Compound 26]	100	59	100
COc1cc(C(=O)N2CCC(N3CCN(C)CC3)CC2)ccc1Nc1ncc2c(n1)N(C1CCCC1)c1ccccc1C(=O)N2C [Compound 25, 11-cyclopentyl-2-((2-methoxy-4-(4-(4-methylpiperazin-1-yl)piperidine-1-carbonyl)phenyl)amino)-5-methyl-5H-benzo[e]pyrimido[5,4-b][1,4]diazepin-6(11H)-one]	100	61	83
COc1cc(C(=O)N2CCC(N3CCN(C)CC3)CC2)ccc1Nc1ncc2c(n1)N1CCc3cccc(c31)C(=O)N2C [Compound 24]	70	56	28
COc1cc(C(=O)N2CCC(N3CCN(C)CC3)CC2)ccc1Nc1ncc2c(n1)N(C)c1ccccc1C(=O)N2C [15 (LRRK2-IN-1)]	100	71	85
